Test results taken from patent EP0359821A1, “METHOD OF STERILIZING PLANT ANTHERS” (priority 1988, dated 1989).

How the values were obtained:
[1] = test system: Tetraploider Roggen Sorte Ukrainskaya tetra; experiment: Field trial of gametocidal activity, tetraploid rye Ukrainskaya tetra; assay type: in vivo; conditions: 1% aqueous emulsion, 10 kg/ha
[2] = test system: Diploider Roggen Sorte Kharkovskaya 55; experiment: Field trial of gametocidal activity, diploid rye Kharkovskaya 55; conditions: 1% aqueous emulsion, 6 kg/ha
in vivo = conditions: mouse
Tritikale Sorte PRAG I09 = experiment: Field trial of gametocidal activity, triticale; assay type: in vivo; conditions: 1% aqueous emulsion, 12 kg/ha; for Prozentsatz des Ansetzens bei freier Bestäubung: control = 100
Text: (§1) Bei Weizen und Tritikale werden Einzelisolatoren verwendet.
Pflanzen von Tritikale Sorte PRAG I09 werden in der V. und VI.
Der Verbrauch an Sterilisationsmittel beträgt 12 kg/ha.

[3] = test system: Hirse Sorte Mironovskoe 94; experiment: Field trial of gametocidal activity, millet Mironovskoe 94; assay type: in vivo; conditions: 1% aqueous emulsion, 10 kg/ha; for percent pollen sterility at 10000 g/ha: read-out: Prozentsatz der Sterilität; for response vs control in vivo at 10000 g/ha: control = 100, read-out: Prozentsatz des Ansetzens bei freier Bestäubung
[4] = test system: Diploider Roggen Sorte Chulpan; experiment: Field trial of gametocidal activity, diploid rye Chulpan; assay type: in vivo; conditions: single compounds, 1% aqueous emulsion, 10 kg/ha
Text: as §1
Pflanzen von diploidem Roggen Sorte Chulpan werden in der V. oder VI.
Der Verbrauch an Sterilisationsmitteln beträgt 10 kg/ha.

[5] = test system: Sonnenblume Sorte Peredovik; experiment: Field trial of pollen sterilisation, sunflower Peredovik; assay type: in vivo; conditions: 0,2% aqueous emulsion, 1,2 kg/ke (so in the source)
Text: Pflanzen der Sonnenblume Sorte Peredovik werden in der V. oder VI.
Der Verbrauch an Sterilisationsmittel beträgt 1,2 kg/ke.

Sonnenblume Linie VK 119 = experiment: Field trial of pollen sterilisation, sunflower line VK 119; conditions: 0,2% aqueous emulsion, 1,2 kg/ha
[6] = test system: Sommerweizen Sorte Moskovskaya 35; experiment: Field trial of gametocidal activity, spring wheat; assay type: in vivo, Weizen; conditions: 1% aqueous emulsion; for Anzahl von Körnern der Ähre bei freier Bestäubung / Anzahl von Körnern der Ähre im Isolator / percent sterility at 10000 g/ha: V. period; for percent sterility at 10000 g/ha: read-out: Prozentsatz der Sterilität
[7] = test system: Winterweizens Sorte Mironovskaya 808; experiment: Field trial of gametocidal activity (anther sterilisation), winter wheat; assay type: in vivo, Weizen; conditions: 2% aqueous emulsion, 20 kg/ha; for response vs control in vivo at 20000 g/ha: control = 100, read-out: Prozentsatz des Ansetzens bei freier Bestäubung
Roggen Sorte Voskhod 2 = experiment: Field trial of gametocidal activity, diploid rye Voskhod 2; assay type: in vivo; conditions: 1% aqueous emulsion, 8 kg/ha
[8] = test system: Tetraploider Roggen Sorte Jubileinaya; experiment: Field trial of gametocidal activity, tetraploid rye Jubileinaya; conditions: 1% aqueous emulsion, 10 kg/ha
[9] = test system: Tetraploider Roggen Sorte Belta; experiment: Field trial of gametocidal activity, tetraploid rye Belta; assay type: in vivo; conditions: 1% aqueous emulsion, 10 kg/ha, V. or VI. period
[10] = test system: Diploider Roggen Sorte Gibrid 1864/74; experiment: Field trial of gametocidal activity, diploid rye Gibrid 1864/74; conditions: 1% aqueous emulsion, 10 kg/ha
[11] = control = 100, read-out: Prozentsatz des Ansetzens bei freier Bestäubung
[12] = V. or VI. period of organogenesis

Row | SMILES | Anzahl von Körnern der Ähre bei freier Bestäubung ([1]; V. or VI. period) | Anzahl von Körnern der Ähre im Isolator ([1]; V. or VI. period) | Prozentsatz des Ansetzens bei freier Bestäubung (Tritikale Sorte PRAG I09) | Anzahl von Körnern der Rispe bei freier Bestäubung ([3]; V. or VI. period) | Anzahl von Körnern der Rispe im Isolator ([3]; V. or VI. period) | Anzahl von Körnern der Ähre bei freier Bestäubung ([4]; Chulpan, V. or VI. period) | Anzahl von Körnern der Ähre im Isolator ([4]; Chulpan, V. or VI. period) | Anzahl von Körnern der Ähre bei freier Bestäubung ([6]; 10 kg/ha) | Anzahl von Körnern der Ähre im Isolator ([6]; 10 kg/ha) | percent sterility at 10000 g/ha ([6]; 10 kg/ha) | response vs control in vivo [6, 11] | Anzahl von Körnern der Ähre bei freier Bestäubung [7, 12] | Anzahl von Körnern der Ähre im Isolator [7, 12] | response vs control in vivo at 20000 g/ha [7] | percent pollen sterility at 10000 g/ha ([3]; V. or VI. period) | response vs control in vivo at 10000 g/ha [3] | further results
1 | O=C(O)c1ccccc1 [Beispiel 31, Äthanolaminsalz der Benzoesäure] | 44,0 | 0,8 |  |  |  |  |  |  |  |  |  |  |  |  |  |  | Prozentsatz der Sterilität ([1]; V. or VI. period): 98,2%; Prozentsatz des Ansetzens bei freier Bestäubung ([1]; control = 100): 99,5%; Anzahl von Körnern der Ähre bei freier Bestäubung ([2]; V. and VI. periods): 43,7; Anzahl von Körnern der Ähre im Isolator ([2]; V. and VI. periods): 0,9; Prozentsatz der Sterilität ([2]; V. and VI. periods): 97,9%; Prozentsatz des Ansetzens bei freier Bestäubung ([2]; control = 100): 96,9%; LD50 (in vivo): 4100 mg/kg
2 | NCCO.O=CO [Beispiel 48, Monoäthanolaminsalz der Ameisensäure] |  |  | 92,9% | 352,2 | 0,0 | 55,2 | 1,2 |  |  |  |  |  |  |  |  |  | Prozentsatz der Sterilität (Tritikale Sorte PRAG I09; V. and VI. period): 99,9%; Prozentsatz der Sterilität ([3]; V. or VI. period): 100%; Prozentsatz des Ansetzens bei freier Bestäubung ([3]; control = 100): 92,8%; Prozentsatz der Sterilität ([4]; Chulpan, V. or VI. period): 97,7%; Prozentsatz des Ansetzens bei freier Bestäubung ([4]; Chulpan, control = 100): 97,4%
3 | OCC(O)COc1ccc(Cl)cc1 (stereo not shown) [Beispiel 3, 3-(4'-Chlorphenoxy)-propandiol-1,2] | 40,7 | 0,0 | 89,0% | 284,7 | 0,0 | 47,2 | 0,0 | 25,8 | 0,0 | 100% | 93.8% | 28,6 | 0,6 | 70.6% | 100% | 75% | Pollensterilität in % [5]: 100%; Ansetzen von Achänen bei freier Bestäubung in % ([5]; V. or VI. period): 81,7%; Ansetzen von Achänen im Isolator bei der Bestäubung mit dem Pollengemisch in % ([5]; V. or VI. period): 0,0%; Ansetzen von Achänen bei freier Bestäubung in % (Sonnenblume Linie VK 119): 84,4%; Ansetzen von Achänen im Isolator bei der Bestäubung mit dem Pollengemisch in % (Sonnenblume Linie VK 119): 0,0%; Pollensterilität in % (Sonnenblume Linie VK 119): 100%; Anzahl von Körnern der Ähre im Isolator (Tritikale Sorte PRAG I09; V. and VI. period): 0,0; percent sterility at 20000 g/ha ([7]; V. or VI. period of organogenesis, read-out: Prozentsatz der Sterilität): 98.4%; percent sterility at 10000 g/ha ([4]; Chulpan, V. or VI. period, read-out: Prozentsatz der Sterilität): 100%; response vs control in vivo at 10000 g/ha ([4]; read-out: Prozentsatz des Ansetzens bei freier Bestäubung, Chulpan, control = 100): 83.2%
4 | OCC(O)COc1ccccc1F (stereo not shown) [Beispiel 21, 3-(2'-Fluorophenoxy)-propandiol-1,2] |  |  |  | 307,5 | 0,0 |  |  | 26,2 | 0,1 | 99.9% |  |  |  |  | 100% | 81% | Anzahl von Körnern der Ähre bei freier Bestäubung (Roggen Sorte Voskhod 2; V. or VI. period): 46,8; Anzahl von Körnern der Ähre im Isolator (Roggen Sorte Voskhod 2; V. or VI. period): 0,3; Prozentsatz der Sterilität (Roggen Sorte Voskhod 2; V. or VI. period): 99,4%; Prozentsatz des Ansetzens bei freier Bestäubung (Roggen Sorte Voskhod 2; control = 100): 85,7%; Anzahl von Körnern der Ähre im Isolator ([8]; V. or VI. period): 0,0; Prozentsatz des Ansetzens bei freier Bestäubung ([8]; control = 100): 97,5%; Anzahl von Körnern der Ähre bei freier Bestäubung [9]: 40,7; Anzahl von Körnern der Ähre im Isolator [9]: 0,0; response vs control in vivo at 10000 g/ha ([6]; 10 kg/ha, control = 100, read-out: Prozentsatz des Ansetzens bei freier Bestäubung): 95.3%
5 | OCC(O)COc1ccc(F)cc1 (stereo not shown) [Beispiel 4] |  |  |  |  |  |  |  | 25,9 | 0,4 | 98.6% | 94.2% | 30,6 | 0,0 | 75.4% |  |  | LD50 (in vivo; LD50, weisse Mäuse): 400 to 600 mg/kg; Anzahl von Körnern der Ähre bei freier Bestäubung ([10]; V. period): 42,8; Anzahl von Körnern der Ähre im Isolator ([10]; V. period): 0,0; Prozentsatz der Sterilität ([10]; V. period): 100%; Prozentsatz des Ansetzens bei freier Bestäubung ([10]; control = 100): 88,2%
